Laboratory results from patent publication US8012941B2, “Carba-nucleoside analogs for antiviral treatment” (Gilead Sciences, Inc., priority 2008, dated 2011).
Read-outs that look alike come from different tables or passages of the source.

Assays:
HCV replicon cells = test: HCV EC50 determination: replicon cells, luciferase readout; assay type: cell-based; details: Hepatitis C virus, 72 h
Experimental: Replicon cells were seeded in 96-well plates at a density of 8×10^3 cells per well in 100 μL of culture medium, excluding Geneticin. Compound was serially diluted in 100% DMSO and then added to the cells at a 1:200 dilution, achieving a final concentration of 0.5% DMSO and a total volume of 200 μL. Plates were incubated at 37° C. for 3 days, after which culture medium was removed and cells were lysed in lysis buffer provided by Promega's luciferase assay system. Following the manufacturer's instruction, 100 μL of luciferase substrate was added to the lysed cells and luciferase activity was measured in a TopCount luminometer.

HCV Δ21 NS5b polymerase = target: T1, HCV Δ21 NS5b polymerase (Hepatitis C virus genotype 1b, UniProt Q9WMX2); test: HCV IC50 determination: NS5b polymerase assay; assay type: biochemical; details: triphosphates of the listed examples, 35° C., 90 min
T1 construct: 75 nM HCV Δ21 NS5b polymerase
Experimental: Assay Protocol: NS5b polymerase assay (40 μL) was assembled by adding 28 μL polymerase mixture (final concentration: 50 mM Tris-HCl at pH 7.5, 10 mM KCL, 5 mM MgCl2, 1 mM DTT, 10 mM EDTA, 4 ng/μL of RNA template, and 75 nM HCV Δ21 NS5b polymerase) to assay plates followed by 4 μL of compound dilution. The polymerase and compound were pre-incubated at 35° C. for 10 minute before the addition of 8 μL of nucleotide substrate mixture (33P-α-labeled competing nucleotide at KM and 0.5 mM of the remaining three nucleotides). The assay plates were covered and incubated at 35° C. for 90 min. Reactions were then filtered through 96-well DEAE-81 filter plates via vacuum. The filter plates were then washed under vacuum with multiple volumes of 0.125 M NaHPO4, water, and ethanol to remove unincorporated label. Plates were then counted on TopCount to assess the level of product synthesis over background controls. The IC50 value was determined using Prism fitting program.

[1] = replicon cells, 3 days at 37° C., luciferase activity, read-out: EC50

| Compound | EC50 (HCV replicon cells; [1]) [µM] | EC50 (HCV replicon cells) [µM] | also measured |
| --- | --- | --- | --- |
| C[C@@]1(O)[C@H](O)[C@@H](CO)O[C@H]1c1cnc2c(N)nc(N)nn12 [Compound 3] | < 250 |  |  |
| CNc1ncnn2c([C@@H]3O[C@H](COP(=O)(OCCSC(=O)C(C)(C)C)OCCSC(=O)C(C)(C)C)[C@@H](O)[C@@]3(C)O)cnc12 [Compound 18] |  | < 10 |  |
| C[C@@]1(O)[C@H](O)[C@@H](CO)O[C@H]1c1cnc2c(N)ncnn12 [Compound 1, (2S,3R,4R,5 R)-2-(4-aminoimidazo[1,2-f][1,2,4]triazin-7-yl)-5-(hydroxymethyl)-3-methyl-tetrahydrofuran-3,4-diol] | < 10 |  |  |
| (2S,3R,4R,5 R)-2-(4-aminoimidazo[1,2-f][1,2,4]triazin-7-yl)-5-(hydroxymethyl)-3-methyl-tetrahydrofuran-3,4-diol [Compound 1] |  |  | IC50 (HCV Δ21 NS5b polymerase): < 10 µM |
| CNc1ncnn2c([C@@H]3O[C@H](CO)[C@@H](O)[C@@]3(C)O)cnc12 [Compound 17] | < 10 |  |  |
| CC(C)OC(=O)[C@H](C)NP(=O)(OC[C@H]1O[C@@H](c2nnc3c(=O)[nH]c(N)nn23)[C@](C)(O)[C@@H]1O)Oc1ccc(Cl)cc1 (stereo partly drawn) [Compound 9] |  | < 250 |  |
